According to US8048915B2, “Biologically active complex” (BioMas Ltd., priority 2001, dated 2011):
Several values for one entry are separate records, joined by “and”; a condition that tells them apart may be missing. Identical values can stand only once. Like-named read-outs stand apart in the source and are kept apart here.

What was measured:
human mononuclear cells = experiment: Proliferation of human mononuclear cells (Example 14); format: cell-based; conditions: 72 hours + 24 hours label, listed as Ex. 1
Protocol: Human mononuclear cells were obtained by layering heparinized blood over a Ficoll/Hypaque gradient. The mononuclear cells were resuspended in enriched RPMI, rinsed three times and brought to a concentrations of 5×10^5cells/ml enriched RPMI. Varying concentrations of the complexes of Ex. 1 and Ex. 7(a), ranging from 0.005 μg to 5 μg/cell mixture were added to the cells. Aliquots of 0.2 ml of each sample were placed in wells of microplates (triplicates).

IL-2 [1] = conditions: 72 hours culture, 50% supernatant on CTLD cells
Excerpt: Culture supernatants were collected, centrifuged and tested for IL-2 activity by using 50% of the volume of the supernatant assaying their ability to support the proliferation of the IL-2 dependent cell line CTLD.

[2] = test system: IL-2 receptors of human mononuclear cells; experiment: Induction of IL-2 receptors of human mononuclear cells (proliferation with recombinant IL-2, 3H thymidine uptake); format: cell-based
Protocol: Human MNC were brought to a concentration of 10^6 cells/ml. RPMI+10% FCS. Aliquots of 0.2 ml. were placed in duplicate wells of microdishes and plates were incubated at 37° C. for 24 hrs. […] Plates were further incubated for 48 hrs and labeled with ^3H thymidine 24 hrs before harvesting. The proliferation was measured by ^3HT uptake as described by Gillis et al, J. Immunol. […] The results are expressed in counts per minute.

[3] = test system: V-mos transformed NIH-3T3 cells; experiment: Colony growth of V-mos transformed NIH-3T3 cells; format: cell-based; conditions: one week; clones counted
Protocol: (§1) 5×10^2 cells were plated per 60 mm dish and incubated with different concentrations (0.005-5 μg/ml) of the complex in PBS. A week later, the cells were stained with Gimsa and clones were counted. Similar experiments were conducted using V-mos transformed NIH-3T3 cells, and also using Ph2TeCl2 and Ph3TeCl, with both types of transformed cells.

interleukin-2 (IL-2) = conditions: single animals
Protocol: The test animals were Balb-c, male, mice, 6 to 8 weeks of age. […] The animals received the following injections:
Each of groups a, b, c and d consisted of 21 animals. The animals were sacrificed daily from 24 h to 7 days after injection. On each day, spleen cells from three of the animals from each control group were pooled together and processed by passing the spleen cells through a 60 mesh stainless steel net in a 5 mm Petri dish containing PBS in order to separate the cells. The cells were collected and centrifuged at 1000 rpm for 10 minutes. The supernatant was discarded and the cells were treated for two minutes with 5 ml of hypotonic buffer (0.15M NH4 Cl, 0.01M KHCO3 dissolved in double distilled water, pH 7.2) to kill the erythrocytes. Thereafter, PBS was added to the cells and the cells were centrifuged for 10 minutes at 1000 rpm. The cells were washed twice with PBS and counted in a hemocytometer using trypan blue to test for viability. The cells were brought to a concentration of 10^7 cells/ml using enriched RPMI containing 10% fetal calf serum (Ser Lab, Sussex, England); 5×10^−5M 2-mercaptoethanol and 3% of d-glutamine (Bio Lab Israel); stock solution 2 mM×1000 nonessential amino acids (Bio Lab, Israel); stock solution×100 and sodium pyruvate (Bio Lab, Israel) stock solution 1 mM×100. An additional three animals from each of the experimental groups were sacrificed and each of the spleens was processed separately using the same procedure.
The cell mixture was divided into two groups:
Supernatants were collected, centrifuged at 1,600 rpm for 10 minutes and stored at 4° C. until used. […] These supernatants were assayed for CSF activity. Prior to incubation of the cells, samples were removed from culture plates and smears of the cultures were made by cytocentrifugation. Slides were stained with May-Grunwald-Giemsa (1:10) solution and evaluated morphologically. A radioactive thymidine assay was used to determine IL-2 activity. Assay for IL-2 Activity • 1. Supernatants were tested for IL-2 activity by the proliferation of the IL-2 dependent cell line CTLD. The IL-2 assay is based on the growth dependence of these cultured T-cell lines on IL-2. T cells harvested from IL-2 dependent culture, washed and placed back in culture in the absence of IL-2 invariably die within 24 hr. By using tritiated thymidine incorporation (^3H-TdR) as an index of cultured T-cell replication, the IL-2 microassay provides a highly reproducible and quantitative indication of the amount of IL-2 activity in the supernatant prepared hereinabove. • 2. To assay a condition medium for IL-2 activity, a sample containing 5 x 10^4 CTLD cells, 10% fetal calf serum and 50% of supernatant in question, all were suspended in a final volume of 1 ml RPMI. Aliquots of 0.2 ml from each sample were placed in four replicate wells of 96 microwell tissue culture plates (NUNC). Conditioned medium was obtained from cultures of Charles River rat spleen cells stimulated with Con A that contained a known amount of IL-2 as a reference in all assays. • 3. The microwells were incubated for 24 hr at 37° C. after which 1 microcurie/well of ^3H-methylthymidine was added. Cells were then further incubated overnight, harvested with a cell harvester, and counted in a beta scintillator.

IL-2 [4] = test system: IL-2
Protocol: The complexes were administered in these dilutions, as drinking water, to male Balb-C mice, 6-8 weeks of age over a 4 day period. The exact amount of liquid intake was recorded daily. […] The cells were incubated at a concentration of 10^7 cells/ml in enriched RPMI containing 2 μg/ml of con-A for 24 hours at 37° C. The supernatants were collected and tested for IL-2 content.

[5] = test system: Ha-Ras transformed NIH-3T3 cells; experiment: Colony growth of Ha-Ras transformed NIH-3T3 cells; format: cell-based
Protocol: as §1

[6] = 1 μg/ml H2O as drinking water over 4 days
[7] = 10 μg/ml H2O as drinking water over 4 days

Structure (SMILES): Cl[Te]1(Cl)(Cl)OCCO1.N [Example 1, equimolar complex of TeO2 and ethylene glycol, NH4Cl salt]
- proliferation of human mononuclear cells (3H methyl-thymidine) (human mononuclear cells; 5 μg/ml): 5008 and 5182
- proliferation of human mononuclear cells (3H methyl-thymidine) (human mononuclear cells; 1 × 10^−5 μg/ml): 3218 and 2442
- IL-2 activity, Counts per minute (IL-2 [1]; 1 ng): 11,000 Counts per minute
- IL-2 activity, Counts per minute (IL-2 [1]; 10 ng): 1,500 Counts per minute
- IL-2 activity, Counts per minute (IL-2 [1]; 1 μg): 250 Counts per minute
- IL-2 activity, Counts per minute (IL-2 [1]; 100 μg): 280 Counts per minute
- proliferation, 3HT uptake ([2]; Test A, 1 μg/ml, listed as Ex. 1): 28625 counts per minute and 27593 counts per minute
- proliferation, 3HT uptake ([2]; Test A, 1 × 10^−3 μg/ml, listed as Ex. 1): 3652 counts per minute and 5055 counts per minute
- proliferation, 3HT uptake ([2]; Test A, 1 × 10^−4 μg/ml, listed as Ex. 1): 3558 counts per minute and 4047 counts per minute
- proliferation, 3HT uptake ([2]; Test A, 1 × 10^−5 μg/ml, listed as Ex. 1): 2474 counts per minute and 4063 counts per minute
- proliferation, 3HT uptake ([2]; Test A, 5 × 10^−1 μg/ml, listed as Ex. 1): 120755 counts per minute and 105943 counts per minute
- proliferation, 3HT uptake ([2]; Test A, 7 × 10^−1 μg/ml, listed as Ex. 1): 164538 counts per minute and 115195 counts per minute
- proliferation, 3HT uptake ([2]; Test B, 1 μg/ml): 23488 counts per minute
- proliferation, 3HT uptake ([2]; Test B, 1 × 10^−2 μg/ml): 6057 counts per minute
- proliferation, 3HT uptake ([2]; Test B, 1 × 10^−3 μg/ml): 5865 counts per minute
- proliferation, 3HT uptake ([2]; Test B, 1 × 10^−4 μg/ml): 4960 counts per minute
- proliferation, 3HT uptake ([2]; Test B, 1 × 10^−5 μg/ml): 7155 counts per minute
- proliferation, 3HT uptake ([2]; Test B, 5 × 10^−1 μg/ml): 66910 counts per minute
- proliferation, 3HT uptake ([2]; Test B, 5 × 10^−2 μg/ml): 5390 counts per minute
- proliferation, 3HT uptake ([2]; Test B, 7 × 10^−1 μg/ml): 17620 counts per minute
- inhibition of growth [3]: none of the complex, Ph2TeCl2 or Ph3TeCl inhibited the growth
- IL-2 activity (interleukin-2 (IL-2); 1 μg IP in 0.2 ml DMSO/PBS, day 1): 25.919 CPM and 34.326 CPM and 16.718 CPM
- IL-2 activity (interleukin-2 (IL-2); 1 μg IP in 0.2 ml DMSO/PBS, day 2): 21.398 CPM and 22.050 CPM and 9.338 CPM
- IL-2 activity (interleukin-2 (IL-2); 1 μg IP in 0.2 ml DMSO/PBS, day 4): 31.999 CPM and 14.226 CPM and 17.228 CPM
- IL-2 activity (interleukin-2 (IL-2); 1 μg IP in 0.2 ml DMSO/PBS, day 6): 41.261 CPM and 80.314 CPM and 42.485 CPM
- IL-2 activity (interleukin-2 (IL-2); 1 μg IP in 0.2 ml DMSO/PBS, day 7): 66.854 CPM and 58.094 CPM and 51.268 CPM
- IL-2 activity (interleukin-2 (IL-2); 10 μg IP in 0.2 ml DMSO/PBS, day 1): 24.335 CPM and 21.193 CPM and 25.381 CPM
- IL-2 activity (interleukin-2 (IL-2); 10 μg IP in 0.2 ml DMSO/PBS, day 2): 31.901 CPM and 36.390 CPM and 22.066 CPM
- IL-2 activity (interleukin-2 (IL-2); 10 μg IP in 0.2 ml DMSO/PBS, day 3): 20.316 CPM and 18.288 CPM and 12.126 CPM
- IL-2 content, cpm (IL-2 [4]; [6]): 44500 cpm
- Percent increase as compared to control (IL-2 [4]; [6]): +35%
- IL-2 content, cpm (IL-2 [4]; [7]): 49179 cpm
- Percent increase as compared to control (IL-2 [4]; [7]): +50%
- inducing lymphokine production when given orally (IL-2 [4]; orally in an aqueous diluent): active
- number of colonies / growth compared with control ([5]; 0.005-5 μg/ml in PBS, one week, clones counted): major reduction in the number of colonies
- concentration giving the maximum effect (inhibition) ([5]; 0.005-5 μg/ml tested): 0.05 µg/mL
